Measured values as given in patent EP0573652A1, “REMEDY FOR RENAL DISEASES” (FUJISAWA PHARMACEUTICAL CO., LTD., priority 1991, dated 1992).
Like-named read-outs stand apart in the source and are kept apart here.

Columns and labels:
Acute toxicity test = assay: Acute toxicity test; parameters: species or system rats (Crj:CD(SD) strain); settings: Crj:CD(SD), rat, in vivo, iv, intravenously, observed for 14 days, probit method, read-out: LD₅₀
Protocol: Five rats (Crj:CD(SD) strain) of either sex were used per group. Solutions of the test compound in physiological saline were administered to rats intravenously. The rats were then observed for 14 days. The LD₅₀ values were calculated by the probit method.

cynomolgus monkeys [1] = assay: Diuretic effects (urine volume, urinary electrolytes, renal plasma flow, glomerular filtration rate in anesthetized monkeys); type: in vivo; settings: at 15 min. after dosing, Control : 100%; for Increasing % of glomerular filtration rate: calculated from inulin concentrations; for Increasing % of renal plasma flow: calculated from paraaminohypuric acid concentrations
Protocol: Female cynomolgus monkeys weighing 3.2 - 3.9 kg were anesthetized with sodium pentobarbital (20 mg/kg, i.v.) and were maintained at a stable anesthetic level by continuous infusion of the anesthetic at a rate of 4 mg/kg/hr, and then right saphenous vein was catheterized for intravenous infusion. […] Under monitoring blood pressure, urine samples were taken from bladder by catheter and blood samples were taken from right brachial vein. After 90 min. when urine volume, blood, paraaminohypuric acid and inulin concentrations became stable, blood and urine samples were taken to measure concentrations of paraaminohypuric acid and inulin 45 min. before and 15, 30, 45 and 60 min. after dosing with the test compound. Urine volume and urinary electrolytes were measured and the renal plasma flow and glomerular filtration rate values were calculated from respective paraaminohypuric acid and inulin concentrations in the blood and urine samples.

cynomolgus monkeys [2] = assay: Effects on increasing renal blood flow (anesthetized, furosemide-pretreated monkeys, electromagnetic blood flowmeter); type: in vivo; settings: Dose 0.32 mg/kg intravenously; anesthetized cynomolgus monkeys given furosemide
Protocol: Male and female cynomolgus monkeys weighing 2.0-4.8 kg were fed with conventional diet were given furosemide 10 mg/kg subcutaneously and 5 mg/kg intravenously on the previous day and the day of dosing with the test compound respectively. The animals were anesthetized with sodium pentobarbital (20 mg/kg, i.v.) and were maintained at a stable anesthetic level by continuous infusion of the anesthetic at a rate of 6 mg/kg/hr. After fixing the animals on the bench at 37°C, right femoral artery was catheterized for recording of the mean arterial blood pressure using a pressure transducer and left femoral vein was also catheterized for injection of the drug. Left renal artery was installed with an electromagnetic probe for recording renal blood flow using an electromagnetic blood flowmeter. When blood pressure, heart rate and renal blood flow, became sufficiently stable, the test compound dissolved in physiological saline was intravenously given at a rate of 0.2 ml/kg.

Compound | LD50 at 14 days (Acute toxicity test; Female rats) [mg/kg] | LD50 at 14 days (Acute toxicity test; Male rats) [mg/kg] | Increasing % of Cl⁻ excretion (cynomolgus monkeys [1]; Dose 1.0 mg/kg) [%] | Increasing % of K⁺ excretion (cynomolgus monkeys [1]; Dose 1.0 mg/kg) [%] | Increasing % of Na⁺ excretion (cynomolgus monkeys [1]; Dose 1.0 mg/kg) [%] | Increasing % of urine volume (cynomolgus monkeys [1]; Dose 1.0 mg/kg) [%] | Increasing % of glomerular filtration rate (cynomolgus monkeys [1]; Dose 1.0 mg/kg) [%] | Increasing % of renal plasma flow (cynomolgus monkeys [1]; Dose 1.0 mg/kg) [%] | Maximum decreasing % of renal vascular resistance (cynomolgus monkeys [2]) | Maximum increasing % of renal blood flow (cynomolgus monkeys [2]) | Increasing % of Cl⁻ excretion (cynomolgus monkeys [1]; Dose 3.2 mg/kg) [%] | Increasing % of K⁺ excretion (cynomolgus monkeys [1]; Dose 3.2 mg/kg) [%] | Increasing % of Na⁺ excretion (cynomolgus monkeys [1]; Dose 3.2 mg/kg) [%] | Increasing % of urine volume (cynomolgus monkeys [1]; Dose 3.2 mg/kg) [%] | Increasing % of glomerular filtration rate (cynomolgus monkeys [1]; Dose 3.2 mg/kg) [%] | Increasing % of renal plasma flow (cynomolgus monkeys [1]; Dose 3.2 mg/kg) [%]
CC(C)CC[C@H](O)[C@H](CC1CCCCC1)NC(=O)[C@H](Cc1c[nH]cn1)N(C)C(=O)[C@H](Cc1ccccc1)OC(=O)N(C)CCN(C)C(=O)N1CCOCC1.Cl [(2), 2(S)-[N^α-[2(S)-[N-methyl-N-[2-{N-(morpholinocarbonyl)-N-methylamino)ethyl]aminocarbonyloxy]-3-phenylpropionyl]-N^α-methyl-L-histidyl]amino-1-cyclohexyl-3(S)-hydroxy-6-methylheptane hydrochloride] | 69 | 55 | 466 | 169 | 205 | 202 | 156 | 169 | +35.5% | +33.8% | – | – | – | – | – | –
CC(C)CC[C@H](O)[C@H](CC1CCCCC1)NC(=O)[C@H](Cc1c[nH]cn1)N(C)C(=O)[C@H](Cc1ccccc1)OC(=O)N(C)CCC(=O)N1CCOCC1.Cl [(1), 2(S)-[N^α-[2(S)-{N-(2-morpholinocarbonylethyl)-N-methylaminocarbonyloxy}-3-phenylpropionyl]-N^α-methyl-L-histidyl]amino-1-cyclohexyl-3(S)-hydroxy-6-methylheptane hydrochloride] | 93.3 | 81.2 | – | – | – | – | – | – | +19.3% | +17.1% | 417 | 135 | 223 | 259 | 122 | 149
C[C@H](CS)C(=O)N1CCC[C@H]1C(=O)O [(A), Captopril, reference compound] | – | – | – | – | – | – | – | – | +11.5% | – | – | – | – | – | 114 | –
